In the test the target is T1, human S1P1 receptor (Homo sapiens, UniProt P21453).
T1 construct: expressed in transfected cells; membranes used
Description: GTP γ35S binding assay for S1P1 activity. Conditions: membranes of cells stably expressing the S1P1 receptor, test concentrations 0.08 to 5,000 nM, 30 min at 25° C. In kind it is biochemical. The protocol:
Compounds were synthesized and tested for S1P1 activity using the GTP γ^35S binding assay. These compounds may be assessed for their ability to activate or block activation of the human S1P1 receptor in cells stably expressing the S1P1 receptor. GTP γ^35S binding was measured in the medium containing (mM) HEPES 25, pH 7.4, MgCl2 10, NaCl 100, dithitothreitol 0.5, digitonin 0.003%, 0.2 nM GTP γ^35S, and 5 μg membrane protein in a volume of 150 μl. Test compounds were included in the concentration range from 0.08 to 5,000 nM unless indicated otherwise. Membranes were incubated with 100 μM 5′-adenylylimmidodiphosphate for 30 min, and subsequently with 10 μM GDP for 10 min on ice. Drug solutions and membrane were mixed, and then reactions were initiated by adding GTP γ^35S and continued for 30 min at 25° C. Reaction mixtures were filtered over Whatman GF/B filters under vacuum, and washed three times with 3 mL of ice-cold buffer (HEPES 25, pH7.4, MgCl2 10 and NaCl 100). Filters were dried and mixed with scintillant, and counted for ^35S activity using a β-counter. Agonist-induced GTP γ^35S binding was obtained by subtracting that in the absence of agonist. Binding data were analyzed using a non-linear regression method. In case of antagonist assay, the reaction mixture contained 10 nM S1P in the presence of test antagonist at concentrations ranging from 0.08 to 5000 nM.
Activity potency: S1P1 receptor from GTP γ^35S: nM, (EC50),
Background: Binding of GTPγS marks nucleotide exchange on a G protein.

T1 sequence (P21453 whole entry): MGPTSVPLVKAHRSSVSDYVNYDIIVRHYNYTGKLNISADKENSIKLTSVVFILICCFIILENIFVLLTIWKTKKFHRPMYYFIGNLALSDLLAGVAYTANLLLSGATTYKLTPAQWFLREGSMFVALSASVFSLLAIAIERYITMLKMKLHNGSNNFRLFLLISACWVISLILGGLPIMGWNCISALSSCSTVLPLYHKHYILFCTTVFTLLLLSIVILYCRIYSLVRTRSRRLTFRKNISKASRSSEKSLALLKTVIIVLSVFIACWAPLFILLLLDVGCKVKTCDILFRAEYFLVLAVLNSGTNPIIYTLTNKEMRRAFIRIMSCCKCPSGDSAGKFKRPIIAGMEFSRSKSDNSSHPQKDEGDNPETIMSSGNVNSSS

As to `Cc1ccc(/C=C(\CCCOc2ccc(CNCCCP(=O)(O)O)cc2)c2cccc(Cl)c2)cc1C` [Compound 1, {3-[(4-{[(4E)-4-(3-Chlorophenyl)-5-(3,4-dimethylphenyl)pent-4-en-1-yl]oxy}benzyl)amino]propyl}phosphonic acid], the EC50 – broadly, the midpoint of the concentration-response curve – turned out to be 9.65 nM.
The result for `Cc1ccc(/C=C(\CCCOc2ccc(CNCCC(=O)O)cc2)c2cccc(Cl)c2)cc1C` [Compound 2, 3-[(4-{[(4E)-4-(3-Chlorophenyl)-5-(3,4-dimethylphenyl)pent-4-en-1-yl]oxy}benzyl)amino]propanoic acid] reads 73.2 nM; that for `Cc1ccc(/C=C(\CCCOc2ccc(CNCCC(=O)O)cc2)c2cc(F)cc(F)c2)cc1C` [Compound 3, 3-[(4-{[(4E)-4-(3,5-Difluorophenyl)-5-(3,4-dimethylphenyl)pent-4-en-1-yl]oxy}benzyl)amino]propanoic acid], 51.9 nM.
`Cc1ccc(/C=C(\CCCOc2ccc(CNCCCP(=O)(O)O)cc2)c2cc(F)cc(F)c2)cc1C` [Compound 4, {3-[(4-{[(4E)-4-(3,5-Difluorophenyl)-5-(3,4-dimethylphenyl)pent-4-en-1-yl]oxy}benzyl)amino]propyl}phosphonic acid] displayed a 50% effective concentration (EC50) of 7.84 nM.
With `Cc1ccc(/C=C(\CCC[S+]([O-])c2ccc(CNCCC(=O)O)cc2)c2cccc(Cl)c2)cc1C` (centres unmarked) [Compound 5, 3-[(4-{[(4E)-4-(3-Chlorophenyl)-5-(3,4-dimethylphenyl)pent-4-en-1-yl]sulfinyl}benzyl)amino]propanoic acid] the figure was 450 nM.
`Cc1ccc(/C=C(\CCC[S+]([O-])c2ccc(CNCCC(=O)O)cc2)c2cc(F)cc(F)c2)cc1C` (centres unmarked) [Compound 7, 3-[(4-{[(4E)-4-(3,5-Difluorophenyl)-5-(3,4-dimethylphenyl)pent-4-en-1-yl]sulfinyl}benzyl)amino]propanoic acid] returned an EC50 of 111 nM.
The result for `Cc1ccc(/C=C(\CCCSc2ccc(CNCCC(=O)O)cc2)c2cc(F)cc(F)c2)cc1C` [Compound 8, 3-[(4-{[(4E)-4-(3,5-Difluorophenyl)-5-(3,4-dimethylphenyl)pent-4-en-1-yl]thio}benzyl)amino]propanoic acid] reads 10.2 nM.
Compound `Cc1ccc(/C=C(\CCCCSc2ccc(CNCCC(=O)O)cc2)c2cc(F)cc(F)c2)cc1C` [Compound 9, 3-[(4-{[(5E)-5-(3,5-Difluorophenyl)-6-(3,4-dimethylphenyl)hex-5-en-1-yl]thio}benzyl)amino]propanoic acid] had an EC50 of 639 nM.

For the origin of these results see US20140228325A1, “ALKENE DERIVATIVES AS SPHINGOSINE 1-PHOSPHATE (S1P) RECEPTOR MODULATORS” (Allergan, Inc., priority 2013, published 2014).
